Literature values, collected in patent publication US20050163856A1, “Abuse-resistant sustained-release opioid formulation” (Roxane Laboratories, Inc., priority 1999, published 2005).
Where a name gives a salt, the structure may show the parent alone.

Conditions: conventional tablet form

Which half-time of absorption does the source give for `COc1ccc2c3c1O[C@H]1C(=O)CC[C@@]4(O)[C@@H](C2)N(C)CC[C@]314` [Oxycodone, oxycodone (dihydrohydroxycodeinone) hydrochloride] here?
Its half-time of absorption is “about 0.4 hours”.
